Row | melting point [°C] | SMILES
1 | 163 to 164 | COc1cc(C(N)=O)ccc1OCCCN1CCC(c2noc3cc(F)ccc23)CC1
2 | 137 | Cc1cnc(-c2ccc(Cl)s2)nc1Cl
3 | 169 to 170 | O=C(c1ccc([N+](=O)[O-])cc1)N1Cc2ccc(C(=O)C(F)(F)F)n2Cc2ccccc21
4 | 77 to 79 | COC(=O)C(C(=O)OC)c1ccc(Br)cc1
5 | 104 to 105 | Clc1ccc(OCC2CCCC(OC(CBr)c3ccc(Cl)cc3Cl)O2)c(Cl)c1 (configuration not stated)
6 | 141 to 142 | COC(=O)C(C)(C)Cc1c(SC(C)(C)C)c2cc(OCc3cnccn3)ccc2n1Cc1ccc(Cl)cc1
7 | 43 to 46 | O=C=Nc1cc([N+](=O)[O-])c(Cl)cc1F
8 | 157 to 160 | Cc1cc(N)c2c(c1Cl)CC(C)O2 (configuration not stated)
9 | 131 to 135 | Cn1c(-c2ccc(-c3ccco3)cc2)cnc1[C@H](Cc1ccccn1)N(C=O)OC(C)(C)C
10 | 159 to 160 | CCCC(=O)c1c(CC)nc2c(-c3ccc(Cl)cc3Cl)nccn12
11 | 218 to 220 | CC(=O)N1N=C2C(=Cc3ccccc3)CS(=O)(=O)CC2C1c1ccccc1 (configuration not stated)
12 | 169 to 171 | Cc1noc(NS(=O)(=O)c2cccc3cccnc23)c1Br
13 | 70 to 75 | CCCN([C@H]1COc2c(F)ccc(C(N)=O)c2C1)C(C)(C)C
14 | 210 | Cn1cc(-c2cncc(OC3SCC(O)C(O)C3O)c2)c(C(F)(F)F)n1 (configuration not stated)
15 | 144 | COC(=O)c1ccc(C(=O)N2CCN(c3ncccc3N)CC2)cc1
16 | 153 to 154 | CCOc1nn(Cc2ccc(OCc3cn4c(Cl)cccc4n3)cc2)cc1CCC(=O)O
17 | 130 to 132 | CN1CCN(c2cc(Cl)cc3c2c(=O)n(Cc2ccccc2O)c(=O)n3Cc2ccccc2)CC1
18 | 159 to 163 | O=C(O)C(Cc1ccccc1)Cn1ccnc1 (racemic)
19 | 61 to 62 | CCC(COC)(OC)c1cc(F)cc(OCc2ccccc2)c1 (configuration not stated)
20 | 116 to 119 | Clc1nnc(Cc2ccncc2)c2ccccc12
21 | 144 | CCCc1c(-c2ccccc2)nc2n1CCc1ccccc1C2OC1CCN(C)CC1 (configuration not stated)
22 | 118 to 119 | CC(C)(C)c1cc(CCc2ccc(F)cc2NC(=O)NC2CCN(Cc3ccccc3)CC2)cc(C(C)(C)C)c1O
23 | 217 to 219 | CC[C@H]1CN(c2c(F)cc3c(=O)c(C(=O)O)cn([C@@H]4C[C@@H]4F)c3c2OC)C[C@H]1N
24 | 141 to 142 | Cn1nnnc1C(CO)=C(c1ccc(F)cc1)c1ccc(F)cc1

Row | melting point [°C] | SMILES
25 | > 300 | CCC1C(=O)Nc2cc(N)c(N)cc21 (configuration not stated)
26 | 136 | Cc1cc(SC(=O)N(C)C)c(C(C)(C)C)cc1CO
27 | 95 | O=C(Nc1ccc2ccc(Oc3ccccc3)nc2n1)C1=CCC=CC1
28 | > 250 | Clc1nc(Cl)nc(NNc2nc(Cl)nc(Cl)n2)n1
29 | 188 to 191 | Cc1ccc(-c2nc(C(F)(F)F)nc(NN)c2-c2ccccc2)cc1
30 | 261 to 263 | O=c1ccc2c(-c3ccccc3)nccc2[nH]1
31 | 122 to 123 | CSc1nc(C)ccc1NC(=O)CCCCCSc1nc2ccccc2s1
32 | 265 to 270 | CC12CC(=O)C3C(CCC4CC(O)CCC43C)C1CCC2C(=O)O (configuration not stated)
33 | 79 to 80.5 | COC(=O)c1ccccc1C=NC(C)(C(N)=O)C(C)C (configuration not stated)
34 | 183 to 184 | CC(C)n1nc(-c2sc(NC(=O)c3cccc(F)c3)nc2-c2ccccc2)ccc1=O
35 | 140 to 143 | CC(C)c1sc(-c2ccccc2)c(-c2ccc(F)cc2)c1CO
36 | 281 to 283 | CN1CCN(c2c(F)c(N)c3c(=O)c(C(=O)O)cn(C4CC4)c3c2F)CCC1=O
37 | 154 to 157 | Cc1cc(SCc2ccnc3oc(-c4ccc(C(F)(F)F)cc4)nc23)ccc1OCC(=O)O
38 | 204 | COc1ccc(S(=O)(=O)C2(C(=O)O)CCN(C(C)(C)C)CC2)cc1
39 | 137 to 140 | CN1OCC(C(O)c2cc(C(C)(C)C)c(O)c(C(C)(C)C)c2)C1=O (configuration not stated)
40 | 175 | CCCCC1(CCCC)CS(=O)(=O)c2ccc(N(C)C)cc2C(c2ccc(OCc3ccc(CN(CC(=O)O)CC(=O)O)cc3)cc2)C1O (configuration not stated)
41 | 67 to 68 | COc1cccc([N+](=O)[O-])c1N
42 | 220 to 222 | COC(=O)c1ccc2c(c1)nc(C)n2N
43 | 242 to 245 | CS(=O)(=O)c1ccc(Nc2nccc(N3CCCc4c(O)cccc43)n2)cc1
44 | 141 | CC(C)CCCSC1c2ccccc2C(=O)N1c1ccc2ccc(Cl)nc2n1 (configuration not stated)
45 | 217 to 219 | COc1ccc(-c2c3c(cc4ccc5c(c24)OCO5)C(=O)OC3)cc1
46 | 134 to 137 | CC1Cc2c(N3C(=O)C4=C(CCCC4)C3=O)ccc(Cl)c2O1 (configuration not stated)
47 | 184 to 189 | Nc1ccc(C(=O)N2CCOCC2)cc1[N+](=O)[O-]
48 | 54 to 55 | CCOC(=O)C(NC(C)=O)C(=O)CCCCc1ccccc1 (configuration not stated)

Row | melting point [°C] | SMILES
49 | 211 to 213 | O=C1NC(=O)C(Cc2ccc(OCc3nc4cccnc4n3Cc3ccc(Cl)cc3)cc2)S1 (configuration not stated)
50 | 96 | CC1(C)CCC(=C[C@H]2[C@H](C(=O)O)C2(C)C)CC1 (relative stereo)
51 | 207 to 208 | CCN1c2ncc(C=Cc3cccc(C)c3)cc2C(=O)N(C)c2cccnc21
52 | 125 to 126 | CC(NC(=O)OCc1ccccc1)C(=O)NCCc1ccccc1 (configuration not stated)
53 | 85 to 88 | COc1ccc2oc(C(=O)c3cccnc3N3CCOCC3)cc2c1
54 | 258 to 261 | COc1cc2ncnc(NC3=CC(=O)C(Nc4ccccc4)=CC3=O)c2cc1OC
55 | 188 to 190 | COc1cc(OC)nc(C2(O)OC(=O)c3c(Cl)cccc32)n1 (configuration not stated)
56 | 83 to 86 | CN(C)CCCc1ccc(C(=O)/C=C/c2ccc(Cl)cc2)cc1
57 | 226 | CNc1ccc(CN2C(=O)C(C)(c3ccccc3Cl)c3cc(Cl)ccc32)c(OC)c1 (configuration not stated)
58 | 110 | COC(=O)CCc1c(C=O)ccc2c1CCC(NS(=O)(=O)c1ccc(Cl)cc1)C2 (configuration not stated)
59 | 175 | COc1ccc(N2CCOCC2)c2sc(C(=O)NCC(=O)c3ccc4c(c3)OCCO4)nc12
60 | 192 to 194 | COc1cc(OC)cc(-c2ncoc2-c2ccc(OC(F)(F)F)c(O)c2)c1
61 | 180 to 186 | Cn1ncc2c1-c1cn[nH]c1CC2
62 | 145 to 155 | C=C1CCCN(Cc2ccc(OC)cc2)C1=O
63 | 93 | CCN1C(=O)C(=C(C)O)SC1=S
64 | 149 to 152 | CCOn1c(C)nc(N2CCc3ccccc3CC2)c(C#N)c1=O
65 | > 250 | COCCNc1ncc(-c2cnc3[nH]c(=O)n(CC4CCCCC4)c3n2)cn1
66 | 141 to 142 | CC(C)(C)OC(=O)NCCNC(=O)c1ccc([N+](=O)[O-])cn1
67 | 85.5 to 86.5 | O=[N+]([O-])c1cc(I)cc(CO)c1
68 | 132 to 135 | O=C(c1ccc(F)cc1)C1CCN(CC(O)c2cc(Br)no2)CC1 (configuration not stated)
69 | 141 to 142 | Cc1ccc(S(=O)(=O)c2ccc3c(c2)C(O)C(Br)C(C)(C)O3)cc1 (configuration not stated)
70 | 76 | COc1c(Cl)c(C=O)c(Cl)c(OC)c1OC
71 | 161 to 163 | CC(C#N)NC(=O)NC(C)(C)C (configuration not stated)
72 | 181 | CC(=O)Nc1cc(C(C)(C)C)c(SC2=C(O)CC(CCc3ccc(O)cc3)(C3CCCC3)OC2=O)cc1C (racemic)

Row | melting point [°C] | SMILES
73 | 50 to 51 | CS(=O)(=O)Nc1ccccc1SC1CCCCC1
74 | 174 to 175 | COc1ccc2cc([C@H](C)C(=O)OC(C)C(=O)NCC(=O)O)ccc2c1 (some centres not stated)
75 | 173 to 176 | CCCSc1ncc(C(=O)N[C@@H](C)C(=O)O)n1Cc1ccccc1Cl
76 | 69 to 71 | CCc1cc(C(=O)OC(C)C)c2cc(C(C)C)cccc1-2
77 | 44.5 to 46.5 | COc1ccccc1I
78 | 94 to 95 | CC(C)(C)OC(=O)N1CCC(C(=O)c2nc3ccccc3s2)CC1
79 | 112 to 114 | O=C(/C=C/C=C(c1ccc(F)cc1)c1ccc(F)cc1)Oc1ccc([N+](=O)[O-])cc1
80 | 73 to 74 | COCOc1ccc(CCc2c(CC(N)=O)cc(OC)c(OC)c2OC)cc1OCc1ccccc1
81 | 94 to 95 | COCC(C)Nc1nccc(Oc2ccc(NC(=O)c3cc(F)cc(N4CCCCC4)c3)c3ccccc23)n1 (configuration not stated)
82 | 108 to 110 | COCC1CN(c2ccc(Br)nc2)C(=O)O1 (racemic)
83 | 167 to 169 | C=CCNC(=O)C1=C(C(=O)Nc2ccc(Br)cc2F)CCCC1
84 | 84 to 86 | CCCN(CCC)c1ccc(CCC(=O)O)c2c1CCCN2C(=O)OC(C)(C)C
85 | 180 to 185 | CC(C)N1CC([N+](=O)[O-])=C(NCC(=O)O)C1=O
86 | 220 to 222 | O=C1NC(Cc2ccc(OCc3ccccc3)cn2)C(=O)NC1Cc1ccc(F)cc1 (configuration not stated)
87 | 134 to 136 | CC(C)Cn1cnc2c(Cl)nc3ccccc3c21
88 | 91 to 93 | CCN(CC)C(=O)CCC(=O)Oc1cc(-n2c(=O)cc(C(F)(F)F)n(C)c2=O)c(F)cc1Cl
89 | 134 to 135 | COC(=O)C1CSC(c2ccc(Oc3ccc(C)cc3O)cc2)N1 (configuration not stated)
90 | 93 to 95 | CC(C)NC(=O)N1CCC(O[N+](=O)[O-])CC1
91 | 162 to 164 | CCOC(=O)C(=CNc1ccnc(-c2ccccn2)n1)C(=O)OCC
92 | 67 to 69 | CCOC(=O)c1cc(F)c(SC)nc1NC1CC1
93 | 122 to 124 | O=C(C=Cc1ccncc1)c1ccco1
94 | 164 to 165 | CSC(=NCc1ccc(CCO)cc1)NC#N
95 | 130 to 131 | CCOC(=O)[C@H](Cc1ccc(O)cc1)NC(=O)C1(NC(=O)[C@@H](SC(=O)C2CCCC2)C(C)C)CCCC1

Row | SMILES | melting point [°C]
96 | NCC1Cc2cccc3cccc1c23 (configuration not stated) | > 250
97 | Cc1nnc(CNC(=O)CN(C)C)n1-c1ccc(Cl)cc1C(=O)c1ccccc1 | 176 to 178
98 | CCCOC12CCC(=O)C3(C)Oc4c(O)ccc5c4C31CCN(C)C2C5 (configuration not stated) | 193 to 195
99 | CN1C2CCCC1CC(c1ccc(I)nn1)C2 (configuration not stated) | 163 to 166
100 | CCc1cccc2[nH]c3c(c12)CC(N(C)C)CC3 (configuration not stated) | 157 to 161
101 | O=C(c1cc2cc(O)ccc2[nH]1)C12CC3CC(CC(C3)C1)C2 | 197 to 199
102 | Cc1c(C(=O)O)nnn1Cc1c(F)cccc1F | 166 to 167

Source: a melting point compilation (Tetko et al.; mined from patent text by program, amines drawn as free bases though some values may be those of a salt)
